# Assay results published in PubChem BioAssay AID1250 (SRMLSC, 2008).
# Calls of active or inactive are those of the source.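 How the source made its calls: active means inhibition of at least 30% at one or more tested concentrations; inactive means inhibition below 30% at every dose.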
# Test: inhibitors of Bluetongue virus cytopathic effect, confirmation, arbovirus, BSR cells (AID 1250)
# Details: BSR cells, Bluetongue virus CPE, ATP luminescence, 72 h; at 20 µM (top of the series)
row,SMILES,CPE inhibition
1,COc1ccc(C)cc1NC(=O)C1COc2ccccc2O1 (stereo unspecified),11.1% (inactive)
2,CSc1nc(C)c(CCO)c(=O)[nH]1,3.71% (inactive)
3,CCC1=NN2C(=N)/C(=C\c3cccn3-c3ccc(C)cc3C)C(=O)N=C2S1,27.2% (inactive)
4,Fc1ccc(Br)cc1C1C=C(c2ccc(Br)cc2)Nc2ncnn21 (stereo unspecified),2.77% (inactive)
5,CCOCCCNC(=S)NCCNc1nc2c(C)cccc2cc1C#N,7.38% (inactive)
6,O=C(Nc1sc2c(c1C(=O)O)CCCC2)c1cccs1,25.3% (inactive)
7,Cn1c(Oc2ccccc2NCc2cc(Br)ccc2O)cc(=O)n(C)c1=O,14.3% (inactive)
8,CCOC(=O)c1cnc(SCc2nc(N)nc(Nc3ccc(C)cc3)n2)nc1N,29.3% (inactive)
9,O=c1oc(-c2cccs2)nc2sc3c(c12)CCCC3,21.2% (inactive)
10,Cc1c(C(=O)NC(Cc2ccccc2)c2nc3ccccc3[nH]2)cccc1[N+](=O)[O-] (stereo unspecified),13.5% (inactive)
11,N#Cc1c(-c2ccco2)nc(SCC(=O)Nc2ccc(S(N)(=O)=O)cc2)[nH]c1=O,4.9% (inactive)
12,O=C(/C=C/c1ccc2c(c1)OCCCO2)c1ccc2ccccc2c1O,18.2% (inactive)
13,O=C(CSc1nnc(NC(=O)c2c(F)cccc2F)s1)Nc1ccc(F)cc1,3.41% (inactive)
14,O=C(O)c1cnc(-c2ccccc2)nc1Sc1ccccc1Cl,11.8% (inactive)
15,Cc1ccc(C)c(N2CCN(C(=O)Cc3ccc(-n4c(=O)[nH]c5ccsc5c4=O)cc3)CC2)c1,13.2% (inactive)
16,CCOc1cccc2sc(NN)nc12,14.3% (inactive)
17,Cc1nc(Nc2ccccc2)sc1-c1ccccc1,3.32% (inactive)
18,CCOC(=O)c1csc(NC(=O)CC2CCCC2)n1,6.07% (inactive)
19,CN(c1ccccc1)c1ccc(/C=C(\CCC(=O)O)c2nc3ccccc3s2)cc1[N+](=O)[O-],21.4% (inactive)
20,N#Cc1c(C(F)(F)F)cc(-c2ccc(Cl)cc2)[nH]c1=O,25.9% (inactive)
21,CCOC1=C/C(=C/c2c(N)n3nc(-c4ccccc4)sc3nc2=O)C=CC1=O,18% (inactive)
22,O=C(c1coc(=O)c(Br)c1)N1CCCc2ccccc21,4.27% (inactive)
23,N#Cc1c(NC(=O)C2CC(Cl)=CCC2C(=O)O)sc2c1CCCCC2 (stereo unspecified),17.1% (inactive)
24,N#Cc1c2n(c3c(=S)nc[nH]c13)CCCCC2,9.66% (inactive)

row,SMILES,CPE inhibition
1,COC(=O)c1c(SCc2ccc(C#N)cc2)nc(=O)[nH]c1C,4.66% (inactive)
2,O=C(COc1ccc(Cl)cc1)Nc1ncc([N+](=O)[O-])s1,25.3% (inactive)
3,C=CCn1c(SC(C)C(N)=O)nc2sc(CC)cc2c1=O (stereo unspecified),18% (inactive)
4,O=C(O)c1cccc(-n2cccc2/C=C2/NC(=O)N(c3ccc(Cl)cc3)C2=O)c1,10.4% (inactive)
5,COC(=O)c1sccc1NC(=O)CSc1ccccc1NS(=O)(=O)c1ccc(Br)cc1,18.5% (inactive)
6,Cc1cc(C)c(NC(=S)NC(=O)c2ccc(-c3ccccc3)cc2)c(C)c1,14.9% (inactive)
7,CCOC(=O)C1(CCCc2ccccc2)CCN(C2CCSCC2)CC1,11.3% (inactive)
8,Cc1ccc(NC(=O)COc2ccc(Br)cc2CO)cc1,10.5% (inactive)
9,Cc1nn(Cc2ccccc2)c(Cl)c1C(=O)NC1CCCc2ccccc21 (stereo unspecified),16.5% (inactive)
10,O=C1N=c2ccccc2=C1c1sc(Nc2ccc(O)cc2)nc1O,14.8% (inactive)
11,CCn1c(COc2cccc3ccccc23)nnc1SCC(=O)OC1CCCCC1,2.2% (inactive)
12,CCOC(=O)c1sc(NC(=S)NC(=O)c2cccc(Cl)c2)c(C(=O)OCC)c1C,1.04% (inactive)
13,OCCNc1nc(Nc2ccccc2)nc2ccccc12,15.3% (inactive)
14,COCCn1c(-c2ccccc2Cl)nc2c(c(=O)c3ccccc3n2C)c1=O,4.39% (inactive)
15,C/C(C/C(C)=C1/SC(=S)NC1=O)=C1\SC(=S)NC1=O,6.76% (inactive)
16,O=C(CCCN1C(=O)/C(=C/c2cccs2)SC1=S)Nc1cccc(C(=O)O)c1,1.7% (inactive)
17,COc1ccccc1NC(=O)CN1CCC(n2c(C)nc3cc(F)ccc32)CC1,23.7% (inactive)
18,N#Cc1c(N2C(=O)Nc3ccccc3N2O)sc2c1CCCCCC2,19.9% (inactive)
19,COc1ccccc1/C=C/C=C1N=C(/C=C/c2ccc(Cl)cc2)OC/1=O,25.2% (inactive)
20,N#Cc1ccccc1NC(=O)c1ccccc1OCC(=O)NCc1ccco1,6.97% (inactive)
21,CCOc1ccc2nc(NC(=O)C3=NN(c4ccccc4)C(=O)CC3)sc2c1,25% (inactive)
22,CCSc1nc2c(sc3nc(C)cc(C)c32)c(=O)[nH]1,18% (inactive)
23,O=C/C(=C\Nc1ccc(Cl)cn1)c1nc2cc(Cl)ccc2o1,10.2% (inactive)
24,CC(C)Oc1cccc(C(=O)NC(=S)Nc2ccccc2)c1,6.77% (inactive)

row,SMILES,CPE inhibition
1,O=C(Nc1cccc(NC(=O)c2cccs2)c1)c1ccco1,20.1% (inactive)
2,CCOC(=O)CC1=NS(=O)(=O)c2ccccc2N1,2.01% (inactive)
3,N#C/C(=C\c1cc2ccccc2nc1N1CCCCC1)C(N)=O,22.5% (inactive)
4,COc1ccc2c(C)cc(Sc3nnnn3-c3ccccc3)nc2c1,20.9% (inactive)
5,O=c1c(-c2ccccc2)c[nH]n1-c1cccc([N+](=O)[O-])c1,14.9% (inactive)
6,O=C(Nc1sc2c(c1C(=O)O)CCC2)c1cccs1,14.7% (inactive)
7,Cc1ccc(S(=O)(=O)N2CCN(c3ccnc4cc(Cl)ccc34)CC2)cc1C,10.9% (inactive)
8,COc1cc(C(=O)Nc2sc(C)c(C)c2C(=O)O)cc(OC)c1OC,26% (inactive)
9,CCN(Cc1ccncc1)Cc1c(O)ccc2cc(Br)ccc12,8.02% (inactive)
10,CN1CCN(C(=S)NC(=O)c2ccc(Cl)cc2)CC1,29.2% (inactive)
11,C=CCNC(=O)c1onc(CSc2ccc(C(C)C)cc2)c1C(=O)O,1.33% (inactive)
12,Cc1ccc(NC(=O)/C(=C/C=C/c2ccccc2)NC(=O)c2ccccc2)cc1,19.4% (inactive)
13,Cc1cccc(S(=O)(=O)Nc2nc3ccccc3nc2NCc2ccco2)c1,12.1% (inactive)
14,Cc1ccccc1CSc1nnc(NC(=O)C2COc3ccccc3O2)s1 (stereo unspecified),18.9% (inactive)
15,O=C(O)CSc1nnc(CNc2cccc(C(F)(F)F)c2)n1Cc1ccco1,3.89% (inactive)
16,CNc1ccccc1C(C)(C)c1cc(-c2cccc(OC)c2)no1,7.83% (inactive)
17,O=C(CN1CCCCCC1)N/N=C/c1cccs1,-0.49% (inactive)
18,Cc1ccc(Nc2nc(N)c([N+](=O)[O-])c(N3CCOCC3)n2)cc1C,11.3% (inactive)
19,CCCn1c2c(c(O)c(C(=O)Nc3nc4ccccc4s3)c1=O)CCCC2,19.3% (inactive)
20,O=C(O)c1ccc(COc2ccc3ccccc3c2/C=C2/NC(=O)N(Cc3ccc(F)cc3)C2=O)cc1,7.43% (inactive)
21,O=C(CCn1c(=O)sc2ccccc21)NCCCn1ccnc1,4.88% (inactive)
22,CCOC(=O)c1nn(-c2ccc(Cl)cc2)c2nc(Nc3ccccc3)cc(=O)n12,28.9% (inactive)
23,O=C(CSc1ccccc1)Nc1cc(Cl)ccc1Oc1ccccc1,3.1% (inactive)
